From PubChem BioAssay (NCI)
Several values for one entry are separate records, joined by “and”; a condition that tells them apart may be missing. Equal entries are not always repeated.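 Each compound was tested at five concentrations against cells in 96-well plates for 48 hours. At the GI50, growth is halved. TGI: total growth inhibition.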

What was measured:
Test in all cases: NCI tumour cell line growth inhibition, 48 h
[1] = tested on: SK-MEL-28 melanoma
[2] = tested on: MOLT-4 leukemia
[3] = tested on: DU-145 prostate
[4] = tested on: A498 renal
[5] = tested on: K-562 leukemia
[6] = tested on: OVCAR-5 ovarian
[7] = tested on: HCC-2998 colon
[8] = tested on: PC-3 prostate
[9] = tested on: HS 578T breast
[10] = tested on: SNB-19 CNS

Row | SMILES | TGI [1] | GI50 [2] | TGI [2] | GI50 [3] | TGI [3] [µM] | GI50 [4] | GI50 [5] | TGI [5] [µM] | TGI [6] | GI50 [7] | TGI [7] | GI50 [8] | TGI [8] [µM] | GI50 [9] | TGI [9] | GI50 [10] | TGI [10] [µM] | GI50 [1] | TGI [4] | GI50 [6]
1 | COc1ccc(-c2cn[nH]c2-c2cc(OC)c(OC)c(OC)c2)cc1N | > 100 µM | < 0.01 µM and 0.0429 µM | > 100 µM | < 0.01 µM and 0.0508 µM | > 100 | < 0.01 µM | < 0.01 µM | > 100 | > 100 µM | < 0.01 µM and 0.0317 µM | 93.6 µM and 32.1 µM | < 0.01 µM and 0.0339 µM | > 100 | < 0.01 µM and 0.0233 µM | > 100 µM | < 0.01 µM and 0.0484 µM | > 100 | – | – | –
2 | O=C(NOCC1CC1)c1ccc(F)c(F)c1Nc1ccc(I)cc1Cl | 0.812 µM | 3.35 µM | 25.6 µM | 4.07 µM | > 100 | 0.0639 µM | 2.55 µM | > 35.3 | – | 0.178 µM | 2.69 µM | 3.03 µM | 16.5 | 4.85 µM | > 92 µM | 1.38 µM | 97.3 | 0.0526 µM | 0.492 µM | 0.0764 µM
3 | O=C1c2ccccc2-c2c1c1ccccc1c(=O)n2CCNCCNCCn1c2c(c3ccccc3c1=O)C(=O)c1ccccc1-2 | 24.5 µM | – | > 100 µM | 0.179 µM | 4.61 | 14.4 µM | 0.33 µM | > 100 | 34.5 µM | 0.279 µM | 14.9 µM | 0.701 µM | 19.3 | 4.28 µM | 38.5 µM | 1.14 µM | 20.5 | 2.9 µM | 29.9 µM | 8.91 µM
4 | COc1ccc(-c2nc(-c3cn(C)c4ncccc34)cs2)cc1 | > 100 µM | 18.9 µM | > 100 µM | > 100 µM | > 100 | 0.776 µM | 5.05 µM | > 100 | > 100 µM | 80.6 µM | > 100 µM | 18.3 µM | > 100 | > 100 µM | > 100 µM | > 100 µM | > 100 | 79.3 µM | 93.9 µM | > 100 µM
5 | C[C@]12CCC(=O)C(O)=C1CC[C@@H]1[C@@H]2CC[C@]2(C)C(=O)CC[C@@H]12 | > 100 µM | – | > 100 µM | – | > 100 | – | – | > 100 | > 100 µM | – | > 100 µM | – | > 100 | – | > 100 µM | – | > 100 | – | > 100 µM | –
6 | CNC(=O)c1cccc(-c2ccc3c(N4CCOC[C@@H]4C)nc(N4CCOC[C@@H]4C)nc3n2)c1 | 0.72 µM and 3.01 µM and 0.671 µM | 0.101 µM and 0.146 µM and 0.214 µM | 28.9 µM and > 10 µM and > 44.4 µM | 0.162 µM and 0.302 µM and 0.25 µM | > 100 | 0.0183 µM and 0.0258 µM and < 0.0141 µM | 0.499 µM and 0.372 µM and 0.445 µM | > 100 | 73.7 µM and > 4.52 µM | 0.221 µM and 0.43 µM and 0.182 µM | > 100 µM and > 10 µM and 36.6 µM | 0.0219 µM and 0.0809 µM and 0.0384 µM | – | 0.0627 µM and 0.0618 µM and 0.116 µM | 0.448 µM and 0.32 µM and 0.459 µM | 0.448 µM and 0.29 µM | > 93.3 | 0.041 µM and 0.123 µM and 0.0402 µM | 0.0827 µM and 0.142 µM and 0.0801 µM | 0.0765 µM and 0.122 µM and 0.0739 µM
7 | O=C(NC(=S)Nc1ccc(Cl)cc1)c1ccccc1 | > 100 µM | > 100 µM | > 100 µM | > 72.9 µM | > 100 | 33 µM | > 100 µM | > 100 | > 100 µM | > 100 µM | > 100 µM | > 100 µM | > 100 | 38.8 µM | > 100 µM | > 79.2 µM | > 100 | > 100 µM | > 100 µM | > 100 µM
8 | C=C1C(=O)O[C@H]2[C@H]1CC/C(Cn1cc(-c3ccccc3)nn1)=C\CC[C@@]1(C)O[C@@H]21 | 2.48 µM | 1.29 µM | 3.53 µM | 2.19 µM | 7.92 | 7.8 µM | 1.76 µM | 8.49 | 13.3 µM | 6.16 µM | 13 µM | 5.65 µM | 12 | 9.78 µM | 29.6 µM | 7.87 µM | 17 | 1.06 µM | 15 µM | 5.7 µM
9 | Cc1cc2c(F)c(Oc3ncnn4cc(OC[C@@H](C)OC(=O)[C@H](C)N)c(C)c34)ccc2[nH]1 | 25.7 µM | 7.25 µM | 23.5 µM | 11.7 µM | 24.2 | 4.55 µM | 3.83 µM | 20.2 | 29.2 µM | 13.5 µM | 27.6 µM | 5.28 µM | 23.9 | 9.36 µM | 44.2 µM | 9.99 µM | 23 | 12.9 µM | 17.3 µM | 14.9 µM
10 | C=C1C(=O)OC2CC3(CO3)C3C(O)C(O)CC3(C)CC12 (centres undefined) | 34.8 µM | – | 46.7 µM | – | > 100 | – | – | > 100 | 71.7 µM | – | 33.9 µM | – | > 100 | – | > 100 µM | – | > 100 | – | 64.2 µM | –
11 | CCOC(CN=c1nc(N(C)C)ss1)OCC | 58.9 µM | – | 25.4 µM | – | > 100 | – | – | 11.8 | 44.1 µM | – | > 100 µM | – | 32 | – | > 82.5 µM | – | > 77.4 | – | > 100 µM | –
12 | Cc1[nH]c(/C=C2\C(=O)Nc3ccc(F)cc32)c(C)c1C(=O)NC[C@H](O)CN1CCOCC1 | > 10 µM | 2.61 µM | > 10 µM | 3.65 µM | > 10 | 3.29 µM | 4.96 µM | > 10 | > 10 µM | 5.17 µM | > 10 µM | 2.64 µM | > 10 | 2.12 µM | > 10 µM | > 10 µM | > 10 | 4.16 µM | > 10 µM | 2.85 µM
13 | CC1(C)OCC(CO)(Nc2nc(N3CC3)nc(N3CC3)n2)CO1 | 53 µM | – | 19 µM | – | 8.91 | – | – | > 100 | 50.3 µM | – | 36.3 µM | – | > 100 | – | 42.6 µM | – | 62.1 | – | 24.2 µM | –
14 | OCCCCC#Cc1ccccc1C#Cc1ccccc1C(F)(F)F | 28.5 µM | 2.63 µM | 12.9 µM | 6.16 µM | 19 | 5.79 µM | 1.09 µM | 13.9 | 30.8 µM | 3.64 µM | 13.9 µM | 8.77 µM | 21 | 11.8 µM | 37.1 µM | 18 µM | 34.3 | 13.2 µM | 19.8 µM | 14.7 µM
